# From patent US20040101571A1, “Use of hydrogen peroxide for the treatment of warts” (priority 2002, published 2004)
# System: warts (human papillomavirus-induced tumors)
# Test: Topical treatment of warts in human patients (clinical case examples)
# Format: in vivo
# Text: The method of the present invention neither destroys healthy, uninfected tissue nor results in any local or systemic side effects, scarring, disfigurement or discomfort to the human treated. Furthermore, the use of the present method results in the destruction of latent viral DNA found in the tumor and the surrounding tissues so that instances of incomplete resolution and are prevented. […] In accordance with the method according to this invention, “regular use of the hydrogen peroxide” is meant to mean application of the hydrogen peroxide at least once a day to the body surface containing the wart(s). A further embodiment of the method of this invention comprises placing a small amount of gel residue or gel on the tumor to be treated. It has been determined through clinical evaluation that once the method of this invention is initiated, the warts begin to shrink, no matter what size, and will totally disappear after a period of four to six weeks of treatment, or less if the gel is applied more often than once daily at bedtime.
# A person presented with warts on the right foot of some two months duration; measuring about 3 mm in diameter, with raised dark spots on the surface. Hydrogen peroxide gel was applied once daily at bedtime over the wart with a Q-tip and left open to air dry. […]
compound,measurement,setting,value
OO [hydrogen peroxide],period of treatment until warts totally disappear,"clinical evaluation, applied once daily at bedtime, warts of any size begin to shrink, less if applied more often",four to six
same,overall clinical experience in treatment and elimination of warts,clinical experience to date,complete eradication of the warts with no recurrence
